Reference: patent publication US11472791B2 (Incyte Corporation, priority 2019, dated 2022)
pIC50: −log10 of the molar value.

molecular target: CDK2/Cyclin E1 (Homo sapiens (Human), UniProt P24941); experiment: CDK2/Cyclin E1 HTRF enzyme activity assay; type: biochemical; settings: 1 mM ATP
Description: Assays are conducted in white 384-well polystyrene plates in a final reaction volume of 8 μL. […] HTRF signals are read after 1 hour at room temperature on a PHERAstar FS plate reader (BMG Labtech). Data is analyzed with IDBS XLFit and GraphPad Prism 5.0 software using a three or four parameter dose response curve to determine IC50 for each compound.

pIC50, > 7.30:
CCS(=O)(=O)N1CCC(Nc2ncc(C(F)(F)F)c(-c3cnn(C(C)(C)C(N)=O)c3)n2)CC1 [Example 97, 2-(4-(2-((1-(Ethylsulfonyl)piperidin-4-yl)amino)-5-(trifluoromethyl)pyrimidin-4-yl)-1H-pyrazol-1-yl)-2-methylpropanamide]
CC(C)(C(N)=O)n1cc(-c2nc(NC3CCN(S(=O)(=O)C4CC4)CC3)ncc2C(F)(F)F)cn1 [Example 98, 2-(4-(2-((1-(Cyclopropylsulfonyl)piperidin-4-yl)amino)-5-(trifluoromethyl)pyrimidin-4-yl)-1H-pyrazol-1-yl)-2-methylpropanamide]
Cc1cc(CN2CCN(C)CC2)ccc1-n1cc(-c2nc(NC3CCN(S(=O)(=O)c4cn(C)cn4)CC3)ncc2C(F)(F)F)cn1 [Example 100, N-(1-((1-Methyl-1H-imidazol-4-yl)sulfonyl)piperidin-4-yl)-4-(1-(2-methyl-4-((4-methylpiperazin-1-yl)methyl)phenyl)-1H-pyrazol-4-yl)-5-(trifluoromethyl)pyrimidin-2-amine]
Cc1cc(CN2CCN(C)CC2)ccc1-n1cc(-c2nc(N[C@H]3CCN(S(C)(=O)=O)C[C@H]3F)ncc2C(F)(F)F)cn1 [Example 101, N-((3R,4S)-3-Fluoro-1-(methylsulfonyl)piperidin-4-yl)-4-(1-(2-methyl-4-((4-methylpiperazin-1-yl)methyl)phenyl)-1H-pyrazol-4-yl)-5-(trifluoromethyl)pyrimidin-2-amine]
Cc1cc(CN2CCN(C)CC2)ccc1-n1cc(-c2nc(N[C@H]3CCN(S(=O)(=O)c4cn(C)cn4)C[C@H]3F)ncc2C(F)(F)F)cn1 [Example 102, N-((3R,4S)-3-Fluoro-1-((1-methyl-1H-imidazol-4-yl)sulfonyl)piperidin-4-yl)-4-(1-(2-methyl-4-((4-methylpiperazin-1-yl)methyl)phenyl)-1H-pyrazol-4-yl)-5-(trifluoromethyl)pyrimidin-2-amine]
Cc1cc(CN2CCN(C)CC2)ccc1-n1cc(-c2nc(N[C@H]3CCN(S(=O)(=O)c4ccn(C)n4)C[C@H]3F)ncc2C(F)(F)F)cn1 [Example 103, N-((3R,4S)-3-Fluoro-1-((1-methyl-1H-pyrazol-3-yl)sulfonyl)piperidin-4-yl)-4-(1-(2-methyl-4-((4-methylpiperazin-1-yl)methyl)phenyl)-1H-pyrazol-4-yl)-5-(trifluoromethyl)pyrimidin-2-amine]
CC(=O)N1CCN(Cc2ccc(-n3cc(-c4nc(N[C@H]5CCN(S(=O)(=O)c6cn(C)cn6)C[C@H]5F)ncc4C(F)(F)F)cn3)c(C)c2)CC1 [Example 104, 1-(4-(4-(4-(2-(((3R,4S)-3-Fluoro-1-((1-methyl-1H-imidazol-4-yl)sulfonyl)piperidin-4-yl)amino)-5-(trifluoromethyl)pyrimidin-4-yl)-1H-pyrazol-1-yl)-3-methylbenzyl)piperazin-1-yl)ethan-1-one]
CC(=O)N1CCN(Cc2ccc(-n3cc(-c4nc(NC5CCN(S(=O)(=O)c6cn(C)cn6)CC5)ncc4C(F)(F)F)cn3)c(C)c2)CC1 [Example 105, 1-(4-(3-Methyl-4-(4-(2-((1-((1-methyl-1H-imidazol-4-yl)sulfonyl)piperidin-4-yl)amino)-5-(trifluoromethyl)pyrimidin-4-yl)-1H-pyrazol-1-yl)benzyl)piperazin-1-yl)ethan-1-one]
Cc1cc(CN(C)C)ccc1-n1cc(-c2nc(NC3CCN(S(=O)(=O)c4cn(C)cn4)CC3)ncc2C(F)(F)F)cn1 [Example 106, 4-(1-(4-((Dimethylamino)methyl)-2-methylphenyl)-1H-pyrazol-4-yl)-N-(1-((1-methyl-1H-imidazol-4-yl)sulfonyl)piperidin-4-yl)-5-(trifluoromethyl)pyrimidin-2-amine]
Cc1cc(CN2CCOCC2)ccc1-n1cc(-c2nc(NC3CCN(S(=O)(=O)c4cn(C)cn4)CC3)ncc2C(F)(F)F)cn1 [Example 107, N-(1-((1-Methyl-1H-imidazol-4-yl)sulfonyl)piperidin-4-yl)-4-(1-(2-methyl-4-(morpholinomethyl)phenyl)-1H-pyrazol-4-yl)-5-(trifluoromethyl)pyrimidin-2-amine]
CN1CCN(Cc2ccc(-n3cc(-c4nc(NC5CCN(S(=O)(=O)c6cn(C)cn6)CC5)ncc4Cl)cn3)c(Cl)c2)CC1 [Example 108, 5-Chloro-4-(1-(2-chloro-4-((4-methylpiperazin-1-yl)methyl)phenyl)-1H-pyrazol-4-yl)-N-(1-((1-methyl-1H-imidazol-4-yl)sulfonyl)piperidin-4-yl)pyrimidin-2-amine]
Cc1cc(CN2CCN(C)CC2)ccc1-n1cc(-c2nc(NC3CCN(S(=O)(=O)c4cn(C)cn4)CC3)ncc2Cl)cn1 [Example 109, 5-Chloro-N-(1-((1-methyl-1H-imidazol-4-yl)sulfonyl)piperidin-4-yl)-4-(1-(2-methyl-4-((4-methylpiperazin-1-yl)methyl)phenyl)-1H-pyrazol-4-yl)pyrimidin-2-amine]
Cc1cc(CN2CCN(C)CC2)ccc1-n1cc(-c2nc(NC3CCN(S(=O)(=O)c4ccn(C)n4)CC3)ncc2Cl)cn1 [Example 110, 5-Chloro-N-(1-((1-methyl-1H-pyrazol-3-yl)sulfonyl)piperidin-4-yl)-4-(1-(2-methyl-4-((4-methylpiperazin-1-yl)methyl)phenyl)-1H-pyrazol-4-yl)pyrimidin-2-amine]
CN1CCN(Cc2ccc(-n3cc(-c4nc(N[C@H]5CCN(S(C)(=O)=O)C[C@H]5F)ncc4C#N)cn3)c(Cl)c2)CC1 [Example 111, 4-(1-(2-Chloro-4-((4-methylpiperazin-1-yl)methyl)phenyl)-1H-pyrazol-4-yl)-2-(((3R,4S)-3-fluoro-1-(methylsulfonyl)piperidin-4-yl)amino)pyrimidine-5-carbonitrile]
CCS(=O)(=O)N1CCC(Nc2ncc(C#N)c(-c3cnn(-c4ccc(CNC)cc4Cl)c3)n2)CC1 [Example 112, 4-(1-(2-Chloro-4-((methylamino)methyl)phenyl)-1H-pyrazol-4-yl)-2-((1-(ethylsulfonyl)piperidin-4-yl)amino)pyrimidine-5-carbonitrile]
CNCc1ccc(-n2cc(-c3nc(NC4CCN(S(=O)(=O)C5CC5)CC4)ncc3C#N)cn2)c(Cl)c1 [Example 114, 4-(1-(2-Chloro-4-((methylamino)methyl)phenyl)-1H-pyrazol-4-yl)-2-((1-(cyclopropylsulfonyl)piperidin-4-yl)amino)pyrimidine-5-carbonitrile]
CCNCc1ccc(-n2cc(-c3nc(NC4CCN(S(C)(=O)=O)CC4)ncc3C#N)cn2)c(Cl)c1 [Example 115, 4-(1-(2-Chloro-4-((ethylamino)methyl)phenyl)-1H-pyrazol-4-yl)-2-((1-(methylsulfonyl)piperidin-4-yl)amino)pyrimidine-5-carbonitrile]
CNCc1ccc(-n2cc(-c3nc(N[C@H]4CCN(S(C)(=O)=O)C[C@H]4F)ncc3C#N)cn2)c(Cl)c1 [Example 116, 4-(1-(2-Chloro-4-((methylamino)methyl)phenyl)-1H-pyrazol-4-yl)-2-(((3R,4S)-3-fluoro-1-(methylsulfonyl)piperidin-4-yl)amino)pyrimidine-5-carbonitrile]
CCS(=O)(=O)N1CC[C@H](Nc2ncc(C#N)c(-c3cnn(-c4ccc(CNC)cc4Cl)c3)n2)[C@H](F)C1 [Example 117, 4-(1-(2-Chloro-4-((methylamino)methyl)phenyl)-1H-pyrazol-4-yl)-2-(((3R,4S)-1-(ethylsulfonyl)-3-fluoropiperidin-4-yl)amino)pyrimidine-5-carbonitrile]
CCCS(=O)(=O)N1CC[C@H](Nc2ncc(C#N)c(-c3cnn(-c4ccc(CNC)cc4Cl)c3)n2)[C@H](F)C1 [Example 118, 4-(1-(2-Chloro-4-((methylamino)methyl)phenyl)-1H-pyrazol-4-yl)-2-(((3R,4S)-3-fluoro-1-(propylsulfonyl)piperidin-4-yl)amino)pyrimidine-5-carbonitrile]
CNCc1ccc(-n2cc(-c3nc(N[C@H]4CCN(S(=O)(=O)C(C)C)C[C@H]4F)ncc3C#N)cn2)c(Cl)c1 [Example 119, 4-(1-(2-Chloro-4-((methylamino)methyl)phenyl)-1H-pyrazol-4-yl)-2-(((3R,4S)-3-fluoro-1-(isopropylsulfonyl)piperidin-4-yl)amino)pyrimidine-5-carbonitrile]
CNCc1ccc(-n2cc(-c3nc(N[C@H]4CCN(S(=O)(=O)C5CC5)C[C@H]4F)ncc3C#N)cn2)c(Cl)c1 [Example 120, 4-(1-(2-Chloro-4-((methylamino)methyl)phenyl)-1H-pyrazol-4-yl)-2-(((3R,4S)-1-(cyclopropylsulfonyl)-3-fluoropiperidin-4-yl)amino)pyrimidine-5-carbonitrile]
CNCc1ccc(-n2cc(-c3nc(N[C@H]4CCN(S(=O)(=O)C5CCC5)C[C@H]4F)ncc3C#N)cn2)c(Cl)c1 [Example 121, 4-(1-(2-Chloro-4-((methylamino)methyl)phenyl)-1H-pyrazol-4-yl)-2-(((3R,4S)-1-(cyclobutylsulfonyl)-3-fluoropiperidin-4-yl)amino)pyrimidine-5-carbonitrile]
CNCc1ccc(-n2cc(-c3nc(N[C@H]4CCN(S(=O)(=O)CCCC#N)C[C@H]4F)ncc3C#N)cn2)c(Cl)c1 [Example 122, 4-(1-(2-Chloro-4-((methylamino)methyl)phenyl)-1H-pyrazol-4-yl)-2-(((3R,4S)-1-((3-cyanopropyl)sulfonyl)-3-fluoropiperidin-4-yl)amino)pyrimidine-5-carbonitrile]
